In general, inhibition refers to the relative decrease from the control value, in per cent.

Chain of mouse UAE (Q02053 whole entry): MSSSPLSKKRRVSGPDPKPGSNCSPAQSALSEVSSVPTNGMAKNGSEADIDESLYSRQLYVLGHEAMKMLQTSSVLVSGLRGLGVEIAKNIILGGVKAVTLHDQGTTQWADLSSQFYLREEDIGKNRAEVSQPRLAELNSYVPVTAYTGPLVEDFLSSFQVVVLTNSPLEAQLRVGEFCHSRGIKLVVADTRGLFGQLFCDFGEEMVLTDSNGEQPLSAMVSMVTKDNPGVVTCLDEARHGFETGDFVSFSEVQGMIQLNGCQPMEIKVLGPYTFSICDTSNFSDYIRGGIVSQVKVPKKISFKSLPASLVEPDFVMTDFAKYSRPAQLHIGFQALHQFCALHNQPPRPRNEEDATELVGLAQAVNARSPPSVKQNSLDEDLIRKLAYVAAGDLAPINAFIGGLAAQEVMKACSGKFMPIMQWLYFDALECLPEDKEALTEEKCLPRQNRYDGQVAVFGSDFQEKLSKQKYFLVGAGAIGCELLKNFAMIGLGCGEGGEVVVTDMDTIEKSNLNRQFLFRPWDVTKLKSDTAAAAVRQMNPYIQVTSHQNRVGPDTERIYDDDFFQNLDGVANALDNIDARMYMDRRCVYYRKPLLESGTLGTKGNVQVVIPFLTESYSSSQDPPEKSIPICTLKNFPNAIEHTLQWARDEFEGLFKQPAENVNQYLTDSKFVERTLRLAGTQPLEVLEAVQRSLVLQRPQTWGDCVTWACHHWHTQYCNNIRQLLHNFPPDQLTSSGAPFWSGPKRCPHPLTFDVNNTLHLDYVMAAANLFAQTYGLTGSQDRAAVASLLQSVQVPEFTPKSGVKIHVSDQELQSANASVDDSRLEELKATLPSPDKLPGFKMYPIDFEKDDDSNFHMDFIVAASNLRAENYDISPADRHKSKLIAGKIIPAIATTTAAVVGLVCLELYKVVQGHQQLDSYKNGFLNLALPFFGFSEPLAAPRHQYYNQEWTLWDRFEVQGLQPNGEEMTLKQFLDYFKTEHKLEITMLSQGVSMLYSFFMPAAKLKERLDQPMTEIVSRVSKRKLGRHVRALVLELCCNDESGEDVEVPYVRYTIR

The test addresses mouse UAE (Mus musculus (Mouse), UniProt Q02053). The experiment in a line: Ubiquitin Activating Enzyme (UAE) HTRF Assay. The following applies: read-out: % inhibition @0.111 μM. Background: TR-FRET usually uses a lanthanide donor and a delayed reading to cut background.
Experimental: After incubation for 120 minutes, quantification of the FRET is performed on the Pherostar (BMG).
For compounds whose values are marked with an asterisk (*), mouse UAE was used. For all other compounds, human UAE was used.
Take `NS(=O)(=O)OC[C@H]1C[C@@H](Nc2ccnc3cc(-c4ccccc4)nn23)[C@H](O)[C@@H]1O` (relative stereo) [Compound I-001, (rac)-((1R,2R,3S,4R)-2,3-dihydroxy-4-(2-phenylpyrazolo[1,5-a]pyrimidin-7-ylamino)cyclopentyl)methyl rel-sulfamate]: the inhibition at 0.111 µM was found to be 72%.

Regarding `NS(=O)(=O)OC[C@H]1C[C@@H](Nc2ccnc3cc(-c4cccc5ccccc45)nn23)[C@H](O)[C@@H]1O` (relative stereo) [Compound I-002, (rac)-((1R,2R,3S,4R)-2,3-dihydroxy-4-{[2-(1-naphthyl)pyrazolo[1,5-a]pyrimidin-7-yl]amino}cyclopentyl)methyl rel-sulfamate], the inhibition at 0.111 µM was found to be 100%.

Take `NS(=O)(=O)OC[C@H]1C[C@@H](Nc2ccnc3cc(-c4cccc(Cl)c4)nn23)[C@H](O)[C@@H]1O` (relative stereo) [Compound I-005, (rac)-((1R,2R,3S,4R)-4-((2-(3-Chlorophenyl)pyrazolo[1,5-a]pyrimidin-7-yl)amino)-2,3-dihydroxycyclopentyl)methyl rel-sulfamate]: the inhibition at 0.111 µM turned out to be 100%.

For the compound `NS(=O)(=O)OC[C@H]1C[C@@H](Nc2cc(Cl)nc3cc(-c4ccccn4)nn23)[C@H](O)[C@@H]1O` (relative stereo) [Compound I-011, (rac)-((1R,2R,3S,4R)-4-(5-chloro-2-(pyridin-2-yl)pyrazolo[1,5-a]pyrimidin-7-ylamino)-2,3-dihydroxycyclopentyl)methyl rel-sulfamate], the inhibition at 0.111 µM amounted to 49%.

Take `NS(=O)(=O)OC[C@H]1C[C@@H](Nc2ccnc3cc(-c4ccccn4)nn23)[C@H](O)[C@@H]1O` (relative stereo) [Compound I-012, (rac)-[(1R,2R,3S,4R)-2,3-dihydroxy-4-{[2-(pyridin-2-yl)pyrazolo[1,5-a]pyrimidin-7-yl]amino}cyclopentyl]methyl rel-sulfamate]: the inhibition at 0.111 µM came to 61%.

For the compound `NS(=O)(=O)OC[C@H]1C[C@@H](Nc2ccnc3cc(-c4csc5cc(Cl)ccc45)nn23)[C@H](O)[C@@H]1O` (relative stereo) [Compound I-091, (rac)-((1R,2R,3S,4R)-4-(2-(6-chlorobenzo[b]thiophen-3-yl)pyrazolo[1,5-a]pyrimidin-7-ylamino)-2,3-dihydroxycyclopentyl)methyl rel-sulfamate], the inhibition at 0.111 µM stood at 100%.

(Values after patent US10202389B2, “Pyrazolopyrimidinyl inhibitors of ubiquitin-activating enzyme” (Millennium Pharmaceuticals, Inc., priority 2012, dated 2019).)
